For assay [1], the system named is PANC-1. The assay is described as follows: Cytotoxicity against human PANC1 cells after 72 hrs by WST8 assay. Conditions: PANC-1, 72 h. Type of assay: functional, cell-based.
Assay [2] has as its system PANC-1. The assay can be described thus: Induction of morphological changes in human PANC1 cells assessed as cell rounding at 5 to 10 uM after 72 hrs by ethidium bromide/acridine orange staining based fluorescent microscopic analysis. It counts as functional.
The test system of assay [3] is PANC-1. The assay can be described thus: Induction of morphological changes in human PANC1 cells assessed as increase in EB positive cells at 5 to 10 uM after 72 hrs by ethidium bromide/acridine orange staining based fluorescent microscopic analysis. Type of assay: functional, cell-based.
In assay [4] the test system is PANC-1. The assay can be described thus: Induction of morphological changes in human PANC1 cells assessed as disruption of cellular organelles at 5 to 10 uM after 72 hrs by ethidium bromide/acridine orange staining based fluorescent microscopic analysis. It counts as functional, cell-based.
Assay [5] relates to PANC-1. The assay can be described thus: Inhibition of colony formation in human PANC1 cells after 10 days by crystal violet staining based assay. It counts as functional, cell-based.
Assay [6] deals with PANC-1. The assay can be described thus: Growth inhibition of human PANC1 cells after 72 hrs by WST8 assay. It counts as functional. The conditions noted are these: PANC-1, 72 h. On the technique in general: Tetrazolium assays rely on reduction of a dye to a coloured formazan, in cell work by metabolically active cells.
Assay [7] relates to PANC-1. The assay is described as follows: Cytotoxicity against human PANC1 cells at >25 uM measured after 72 hrs by WST8 assay. Type of assay: functional, cell-based.

Each structure is given as a SMILES string. pIC50: −log10 of the molar value. Calls of active or inactive are those of the source. The rule behind the calls is not given here.

As to `COc1cc([C@H]2OC[C@H]3[C@@H]2CO[C@@H]3c2ccc(O)c(OC)c2)ccc1O`, the pIC50 (in general, −log10 of the IC50, conventionally taken in molar units) in the assay with PANC-1 [1] is 4.43.
In the case of `COc1cc([C@H]2O[C@@H](OC)[C@H]3[C@@H]2CO[C@@H]3c2ccc(O)c(OC)c2)ccc1O`, the result in the assay on PANC-1 [2], in the assay with PANC-1 [3] and in the assay with PANC-1 [4] was Active. For the same compound, the pIC50 in the assay with PANC-1 [1] was 5.43. Also, the inhibition result in the assay on PANC-1 [5] is “Dose-dependent effect”.
The compound `O=Cc1ccc(CO)o1` [AES-103] gave a pIC50 in the assay with PANC-1 [1] of under 4.00.
The same measure, in the same setting: with `O=C(/C=C/c1ccc(O)cc1)c1ccc(O)cc1O` [ISOLIQUIRITIGENIN] the figure was 5.48.
As to `Nc1ccn([C@@H]2O[C@H](CO)[C@@H](O)C2(F)F)c(=O)n1` [GEMCITABINE], the GI50 (in general, the concentration at which growth is held to half of that of the control) in the assay with PANC-1 [6] came to 5.8 µM. In the assay on PANC-1 [7], the outcome was Active.
Compound `Cc1ncccc1O` gave a pIC50 with PANC-1 [1] of under 4.00.
Still for that read-out and setting: with `CC(=O)[C@H]1CC[C@@]2(O)[C@@H]3C=CC4=CC(=O)CC[C@]4(C)[C@H]3CC[C@]12C` the figure was 4.10.
Same read-out and setting: with `CC(=O)[C@H]1CC[C@H]2[C@@H]3C=CC4=CC(=O)CC[C@]4(C)[C@H]3CC[C@]12C` the figure was 4.40.
As to `COc1cc(C(=O)OC[C@H]2O[C@@H](Oc3ccc([C@H]4OC[C@H]5[C@@H]4CO[C@@H]5c4ccc(O)c(OC)c4)cc3OC)[C@H](O)[C@@H](O)[C@@H]2O)ccc1O`, the pIC50 in the assay on PANC-1 [1] is 4.20.
In the assay on PANC-1 [1], `CC(=O)[C@]1(O)CC[C@]2(O)[C@@H]3CC=C4C[C@@H](O)CC[C@]4(C)[C@H]3C[C@@H](OC(=O)c3ccccc3)[C@]12C` gave a pIC50 of 4.73.
Same read-out and setting: with `CO[C@H]1C[C@@H](OCc2ccc(C=O)o2)O[C@@H]1[C@@H](C)O` the figure was under 4.00; with `CO[C@@H]1C[C@@H](OCc2ccc(C=O)o2)O[C@@H](C)[C@@H]1O`, under 4.00; with `COc1cc([C@H]2OC[C@H]3[C@@H]2CO[C@@H]3c2cc(OC)c(O)c(OC)c2)cc(OC)c1O` [SYRINGARESINOL], 4.21.
